Measured values published in ChEMBL document CHEMBL1201862, “PubChem BioAssay data set” (2004).
Calls of active or inactive are those of the source.

Experiments:
[1] = Trypanosoma cruzi growth suppression in host cells – NIH3T3 host cells, beta-gal luminescence, confirmation (AID 2044); type: functional, cell-based;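 note: intracellular parasites grown in NIH/3T3 mouse fibroblasts as host cells; luminescent beta-galactosidase reporter signal from transgenic T. cruzi replicating inside host cells; inhibitors lower the luminescence signal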
[2] = NIH3T3 cell viability loss – ATP luminescence, mouse fibroblasts, counter-screen, dose response (AID 2010); type: functional, cell-based;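 note: cells exposed to compound for about 90 hours before reading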
[3] = target: T1, Apoptotic protease-activating factor 1 (Homo sapiens, UniProt O14727); type: functional
T1 sequence (O14727 whole entry): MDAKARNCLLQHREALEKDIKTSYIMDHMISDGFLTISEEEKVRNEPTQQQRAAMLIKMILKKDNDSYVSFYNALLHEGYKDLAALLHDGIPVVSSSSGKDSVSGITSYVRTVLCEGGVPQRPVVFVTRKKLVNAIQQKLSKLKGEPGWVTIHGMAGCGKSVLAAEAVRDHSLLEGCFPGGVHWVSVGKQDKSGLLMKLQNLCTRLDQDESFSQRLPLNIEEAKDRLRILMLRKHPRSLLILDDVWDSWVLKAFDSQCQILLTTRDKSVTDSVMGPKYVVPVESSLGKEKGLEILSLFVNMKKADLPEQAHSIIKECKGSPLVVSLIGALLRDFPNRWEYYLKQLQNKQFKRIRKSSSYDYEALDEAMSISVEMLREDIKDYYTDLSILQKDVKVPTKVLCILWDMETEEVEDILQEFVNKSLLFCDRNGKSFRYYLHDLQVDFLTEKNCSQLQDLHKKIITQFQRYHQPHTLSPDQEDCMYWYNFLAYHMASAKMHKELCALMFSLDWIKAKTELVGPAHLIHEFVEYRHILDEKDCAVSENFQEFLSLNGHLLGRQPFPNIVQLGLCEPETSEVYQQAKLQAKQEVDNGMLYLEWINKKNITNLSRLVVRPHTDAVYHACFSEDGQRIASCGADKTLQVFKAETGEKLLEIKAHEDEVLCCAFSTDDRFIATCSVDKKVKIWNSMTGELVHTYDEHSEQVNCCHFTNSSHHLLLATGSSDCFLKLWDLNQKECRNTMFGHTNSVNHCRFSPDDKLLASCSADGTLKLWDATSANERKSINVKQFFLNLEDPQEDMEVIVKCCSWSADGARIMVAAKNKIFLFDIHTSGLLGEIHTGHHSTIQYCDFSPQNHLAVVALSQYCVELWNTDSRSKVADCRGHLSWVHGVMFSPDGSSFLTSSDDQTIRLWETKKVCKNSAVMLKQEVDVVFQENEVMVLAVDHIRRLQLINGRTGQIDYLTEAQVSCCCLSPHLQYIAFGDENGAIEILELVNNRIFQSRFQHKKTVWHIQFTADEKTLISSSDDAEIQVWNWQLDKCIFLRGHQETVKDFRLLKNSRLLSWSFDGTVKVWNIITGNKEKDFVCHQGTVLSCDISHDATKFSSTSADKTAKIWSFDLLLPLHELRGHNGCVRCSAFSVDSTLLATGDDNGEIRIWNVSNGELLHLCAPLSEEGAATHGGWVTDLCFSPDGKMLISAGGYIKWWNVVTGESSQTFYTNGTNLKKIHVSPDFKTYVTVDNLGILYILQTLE

[4] = target: T2, Adenosylmethionine-8-amino-7-oxononanoate aminotransferase (Mycobacterium tuberculosis, UniProt P9WQ81); experiment: Mycobacterium tuberculosis BioA enzyme inhibitor Measured in Biochemical System Using Plate Reader - 2163-02_Inhibitor_Dose_CherryPick_Activity.; type: functional, Mycobacterium tuberculosis UT205
T2 sequence (P9WQ81 whole entry): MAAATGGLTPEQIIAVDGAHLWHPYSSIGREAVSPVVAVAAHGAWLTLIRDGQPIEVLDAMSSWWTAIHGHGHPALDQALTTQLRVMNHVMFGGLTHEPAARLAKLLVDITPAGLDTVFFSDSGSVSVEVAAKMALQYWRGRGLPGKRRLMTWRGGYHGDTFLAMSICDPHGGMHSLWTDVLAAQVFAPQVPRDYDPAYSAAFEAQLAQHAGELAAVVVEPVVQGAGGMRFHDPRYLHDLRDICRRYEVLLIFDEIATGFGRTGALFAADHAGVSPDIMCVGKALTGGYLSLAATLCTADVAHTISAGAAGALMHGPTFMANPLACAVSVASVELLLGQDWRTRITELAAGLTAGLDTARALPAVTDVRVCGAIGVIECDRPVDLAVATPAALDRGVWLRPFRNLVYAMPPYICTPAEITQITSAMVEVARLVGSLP

[5] = Luminescence Cell-Based Dose Confirmation HTS to Identify Activators of 5'UTR Stem-Loop Driven Alpha-Synuclein mRNA Translation in H4 Neuroglioblastoma Cells. [Related pubchem assays: 1829 (Project Summary), 1814 (Primary HTS)]; type: functional
[6] = Luminescence Cell-Based Dose Response HTS to Identify Activators of Luciferase Translation or Activity in H4 […] Cells. [Related pubchem assays: 1829 (Project Summary), 1814 (Primary HTS)]; type: functional
H4 = experiment: Luminescence Cell-Based Dose Response HTS to Identify Activators of 5'UTR Stem-Loop Driven Prion Protein mRNA Translation in H4 Neuroglioblastoma Cells. [Related pubchem assays: 1829 (Project Summary), 1814 (Primary HTS)]; type: functional; settings: Homo sapiens
Caspase-3 = target: T3, Caspase-3 (Homo sapiens, UniProt P42574); type: functional;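 note: Dose-response selectivity test against caspase-3 for candidate inhibitors of sentrin-specific proteases (SENPs)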
T3 sequence (P42574 whole entry): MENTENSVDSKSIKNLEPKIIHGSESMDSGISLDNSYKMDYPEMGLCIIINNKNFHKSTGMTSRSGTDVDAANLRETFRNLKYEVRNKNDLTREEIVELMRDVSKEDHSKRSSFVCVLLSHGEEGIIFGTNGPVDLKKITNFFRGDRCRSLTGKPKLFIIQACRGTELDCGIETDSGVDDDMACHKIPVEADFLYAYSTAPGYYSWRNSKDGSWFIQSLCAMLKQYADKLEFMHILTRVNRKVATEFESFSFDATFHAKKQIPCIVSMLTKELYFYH

[7] = target: T4, Sentrin-specific protease 7 (Homo sapiens, UniProt Q9BQF6); type: functional;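 note: Luminescence-based dose-response confirmation of ultra-high-throughput screening hits, measuring inhibition of SENP7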
T4 sequence (Q9BQF6 whole entry): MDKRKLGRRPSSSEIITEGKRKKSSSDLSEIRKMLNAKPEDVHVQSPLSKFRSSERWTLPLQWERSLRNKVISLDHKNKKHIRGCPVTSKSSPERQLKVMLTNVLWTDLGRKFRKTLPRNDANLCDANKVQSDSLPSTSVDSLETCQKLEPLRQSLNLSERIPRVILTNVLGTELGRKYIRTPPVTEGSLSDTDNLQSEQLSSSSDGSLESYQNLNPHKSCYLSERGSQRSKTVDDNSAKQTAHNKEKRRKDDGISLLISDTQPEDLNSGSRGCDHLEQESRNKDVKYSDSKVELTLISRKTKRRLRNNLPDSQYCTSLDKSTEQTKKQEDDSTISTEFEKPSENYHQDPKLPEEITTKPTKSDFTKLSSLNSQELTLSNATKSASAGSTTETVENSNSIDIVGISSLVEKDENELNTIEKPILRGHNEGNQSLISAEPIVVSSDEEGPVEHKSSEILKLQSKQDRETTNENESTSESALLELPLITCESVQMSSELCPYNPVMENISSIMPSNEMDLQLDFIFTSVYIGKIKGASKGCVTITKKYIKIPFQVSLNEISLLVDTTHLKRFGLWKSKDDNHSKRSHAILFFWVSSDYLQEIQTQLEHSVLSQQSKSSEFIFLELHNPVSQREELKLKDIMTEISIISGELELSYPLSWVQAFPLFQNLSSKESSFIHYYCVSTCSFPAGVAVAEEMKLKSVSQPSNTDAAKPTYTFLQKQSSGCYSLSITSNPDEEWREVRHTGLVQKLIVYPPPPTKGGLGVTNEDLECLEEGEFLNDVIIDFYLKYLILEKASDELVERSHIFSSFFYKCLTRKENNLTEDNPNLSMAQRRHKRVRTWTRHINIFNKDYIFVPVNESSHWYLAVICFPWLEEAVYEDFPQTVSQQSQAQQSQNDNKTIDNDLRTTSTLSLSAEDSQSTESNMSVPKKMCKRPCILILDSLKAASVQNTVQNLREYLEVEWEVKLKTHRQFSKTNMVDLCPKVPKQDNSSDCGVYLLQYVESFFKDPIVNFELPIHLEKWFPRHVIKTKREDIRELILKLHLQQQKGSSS

[8] = target: T5, Sentrin-specific protease 6 (Homo sapiens, UniProt Q9GZR1); type: functional;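 note: Luminescence-based dose-response confirmatory assay of SENP6 inhibition, following up an ultra-high-throughput screen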
T5 sequence (Q9GZR1 whole entry): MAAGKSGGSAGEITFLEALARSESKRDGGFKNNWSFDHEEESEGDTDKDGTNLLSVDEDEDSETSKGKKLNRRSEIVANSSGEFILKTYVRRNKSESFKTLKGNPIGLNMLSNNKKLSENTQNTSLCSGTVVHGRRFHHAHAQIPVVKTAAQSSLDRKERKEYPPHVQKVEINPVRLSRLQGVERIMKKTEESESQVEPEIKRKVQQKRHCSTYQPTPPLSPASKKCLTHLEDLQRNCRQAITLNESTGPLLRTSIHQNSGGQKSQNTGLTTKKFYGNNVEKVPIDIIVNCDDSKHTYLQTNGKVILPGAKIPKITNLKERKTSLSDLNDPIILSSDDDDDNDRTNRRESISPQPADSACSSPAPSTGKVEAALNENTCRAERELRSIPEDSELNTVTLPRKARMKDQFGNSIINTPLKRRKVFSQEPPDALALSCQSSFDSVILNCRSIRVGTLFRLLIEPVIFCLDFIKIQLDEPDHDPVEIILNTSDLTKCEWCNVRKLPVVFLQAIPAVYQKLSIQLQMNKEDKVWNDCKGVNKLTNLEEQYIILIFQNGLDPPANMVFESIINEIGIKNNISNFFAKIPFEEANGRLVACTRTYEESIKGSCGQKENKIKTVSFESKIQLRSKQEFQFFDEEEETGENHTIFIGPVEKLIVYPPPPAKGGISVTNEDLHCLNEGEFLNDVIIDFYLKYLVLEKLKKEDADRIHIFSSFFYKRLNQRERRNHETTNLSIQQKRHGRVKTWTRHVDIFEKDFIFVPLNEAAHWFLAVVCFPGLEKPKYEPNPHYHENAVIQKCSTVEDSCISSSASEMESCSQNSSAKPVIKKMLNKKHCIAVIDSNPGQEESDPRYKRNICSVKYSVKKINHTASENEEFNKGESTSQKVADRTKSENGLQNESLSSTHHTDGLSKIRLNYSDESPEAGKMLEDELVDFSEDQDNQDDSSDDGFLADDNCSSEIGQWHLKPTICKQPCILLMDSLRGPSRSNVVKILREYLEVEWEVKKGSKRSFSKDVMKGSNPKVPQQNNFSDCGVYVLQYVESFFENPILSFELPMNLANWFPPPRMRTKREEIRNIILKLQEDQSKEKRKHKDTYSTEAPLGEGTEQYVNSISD

[9] = target: T6, Sentrin-specific protease 8 (Homo sapiens, UniProt Q96LD8); type: functional;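 note: luminescence read-out of SENP8 inhibition, dose-response confirmation following an ultra-high-throughput screen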
T6 sequence (Q96LD8 whole entry): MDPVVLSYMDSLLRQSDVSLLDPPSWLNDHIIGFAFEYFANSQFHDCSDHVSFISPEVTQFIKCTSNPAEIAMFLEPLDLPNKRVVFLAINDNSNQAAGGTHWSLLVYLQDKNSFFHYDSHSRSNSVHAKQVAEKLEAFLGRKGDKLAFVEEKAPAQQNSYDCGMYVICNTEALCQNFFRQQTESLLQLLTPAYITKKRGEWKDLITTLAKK

Protein skinhead-1 = target: T7, Protein skinhead-1 (Caenorhabditis elegans, UniProt P34707); type: functional
T7 sequence (P34707 whole entry): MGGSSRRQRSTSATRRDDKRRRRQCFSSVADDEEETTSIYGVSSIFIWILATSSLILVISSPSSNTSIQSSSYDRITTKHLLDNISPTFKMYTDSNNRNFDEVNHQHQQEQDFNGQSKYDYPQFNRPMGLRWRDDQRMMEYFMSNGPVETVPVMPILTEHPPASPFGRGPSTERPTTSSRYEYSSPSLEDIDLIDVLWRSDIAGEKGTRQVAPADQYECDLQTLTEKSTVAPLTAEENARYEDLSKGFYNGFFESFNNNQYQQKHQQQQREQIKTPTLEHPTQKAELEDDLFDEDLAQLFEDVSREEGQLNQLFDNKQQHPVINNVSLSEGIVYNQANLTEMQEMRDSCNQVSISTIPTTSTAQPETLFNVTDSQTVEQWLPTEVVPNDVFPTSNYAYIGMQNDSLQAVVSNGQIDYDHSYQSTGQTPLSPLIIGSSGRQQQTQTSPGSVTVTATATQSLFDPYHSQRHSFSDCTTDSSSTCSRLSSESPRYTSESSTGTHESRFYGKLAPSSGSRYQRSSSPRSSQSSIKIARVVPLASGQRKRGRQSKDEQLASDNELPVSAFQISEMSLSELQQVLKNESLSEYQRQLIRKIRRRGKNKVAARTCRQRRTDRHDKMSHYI

| Compound | AC50 [4] | IC50 (Caspase-3) | IC50 [7] | IC50 [8] | IC50 [9] | other results |
| --- | --- | --- | --- | --- | --- | --- |
| COc1ccc(C/N=C/c2[nH]c3ccc(Br)c(Cl)c3c2O)cc1 | – | – | – | – | – | EC50 [1]: 1.31 µM (active); EC50 [2]: > 60 µM (not active); IC50 [3]: 59.2 µM (active) |
| O=C(C[C@@H]1C[C@@H]2c3cc(NC(=O)c4cccnc4)ccc3O[C@@H]2[C@@H](CO)O1)NCc1cccnc1 | 10.7 µM (active) | – | – | – | – | – |
| COc1ccc(-c2noc(Cc3cccs3)n2)cc1 | – | 27.3 µM (active) | 9.93 µM (active) | 31.8 µM (active) | 25 µM (active) | EC50 [5]: 24.9 µM (active); EC50 [6]: 0.501 µM (active); EC50 (H4): > 120 µM (not active) |
| c1ccc(CCNc2ncnc3c2cnn3-c2ccccc2)cc1 | – | 22.5 µM (active) | 7.14 µM (active) | 19.6 µM (active) | 22.9 µM (active) | IC50 (Protein skinhead-1): > 100 µM (inactive) |
| O=C(Nc1ccc(N2CCOCC2)c(Cl)c1)c1cccnc1 | 13.3 µM (active) | – | – | – | – | – |
| O=C(O)c1ccc(COc2ccccc2[N+](=O)[O-])o1 | – | > 100 µM (inactive) | 10.5 µM (active) | 35.6 µM (active) | 31.3 µM (active) | – |
| CN(Cc1ccccc1)C(=O)CCS(=O)(=O)c1ccc2c(c1)NC(=O)CS2 | 3.51 µM (active) | – | – | – | – | – |
| O=C(N/N=C/C(Cl)=C\c1ccccc1)c1cccs1 | – | 28.7 µM (active) | 5.83 µM (active) | > 100 µM (inactive) | > 100 µM (inactive) | – |
